Measurements published in ChEMBL document CHEMBL6109039, “Designed and synthesized novel tripeptides targeting diabetes and its related pathologies” (Eur J Med Chem, 2025).
Residues, ends and D or L forms follow the SMILES beside them.

Key:
Albumin [1] = biological target: T1, Albumin (Homo sapiens, UniProt P02768); test: Inhibition of D-fructose glycation in human serum albumin model by measuring absorbance at 279 nm incubated for 7 days by UV spectroscopic analysis (reference value: 1.072); details: 168 h, time 7 day
Alpha glucosidase = Alpha glucosidase (Homo sapiens, UniProt O43451+P10253+P14410+Q2M2H8); test: Inhibition of Alpha-glucosidase (unknown origin) using p-nitrophenyl-alpha-D-glucopyranoside as substrate pre-incubated for 10 mins followed by substrate addition and measured after 5 mins by spectrophotometric analysis; format: protein assay
Albumin [2] = biological target: T1, Albumin; test: Inhibition of D-glucose glycation in human serum albumin model by measuring absorbance at 279 nm incubated for 5 days by UV spectroscopic analysis (reference value: 0.741); details: 120 h, time 5 day
Mus musculus [3] = test: Antidiabetic activity in Nicotinamide/Streptozotocin induced male Balb/c mouse model assessed as reduction in HbA1c levels at 63.81 ug/kg, ip treated for 21 days by Turbidimetric immunoassay; format: functional; parameters: scale not given: the % may be the effect or the level left; details: dose 63.81 µg/kg, time 21 day
Albumin [4] = biological target: T1, Albumin; test: Inhibition of D-glucose glycation in human serum albumin model by measuring absorbance at 279 nm incubated for 7 days by UV spectroscopic analysis (reference value: […]); details: 168 h, time 7 day
Albumin [5] = biological target: T1, Albumin; test: Inhibition of D-glucose glycation in human serum albumin model by measuring ketoamine moieties incubated for 30 days by Nitroblue tetrazolium (NBT) reduction assay (reference value: 27.85 nmol/mL); details: 720 h, time 30 day
Albumin [6] = biological target: T1, Albumin; test: Inhibition of D-glucose glycation in human serum albumin model by measuring ketoamine moieties incubated for 26 days by Nitroblue tetrazolium (NBT) reduction assay (reference value: 28.79 nmol/mL); details: 624 h, time 26 day
Mus musculus [7] = test: Antidiabetic activity in Nicotinamide/Streptozotocin induced male Balb/c mouse model assessed as TC/HDL-Cholesterol ratio in blood at 63.81 ug/kg, ip treated for 21 days (reference value: 4.03); format: functional; details: dose 63.81 µg/kg, time 21 day
Mus musculus [8] = test: Antidiabetic activity in Nicotinamide/Streptozotocin induced male Balb/c mouse model assessed as Non-HDL-Cholesterol level in blood at 63.81 ug/kg, ip treated for 21 days (reference value: 75 mg/dL); format: functional; details: dose 63.81 µg/kg, time 21 day
Albumin [9] = biological target: T1, Albumin; test: Inhibition of D-glucose glycation in human serum albumin model by measuring ketoamine moieties incubated for 3 days by Nitroblue tetrazolium (NBT) reduction assay (reference value: 24.27 nmol/mL); details: 72 h, time 3 day
Mus musculus [10] = test: Antidiabetic activity in Nicotinamide/Streptozotocin induced male Balb/c mouse model assessed as change in body weight at 63.81 ug/kg, ip treated for 21 days (reference value: 16.62 +/- 0.83 g); format: functional; details: dose 63.81 µg/kg, time 21 day
Albumin [11] = biological target: T1, Albumin; test: Inhibition of D-glucose glycation in human serum albumin by measuring absorbance at 279 nm model incubated for 14 days by UV spectroscopic analysis (reference value: 2.302); details: 336 h, time 14 day
Mus musculus [12] = test: Antidiabetic activity in Nicotinamide/Streptozotocin induced male Balb/c mouse model assessed as reduction in total cholesterol level in blood at 63.81 ug/kg, ip treated for 21 days (reference value: 121 +/- 6.05 mg/dL); format: functional; details: dose 63.81 µg/kg, time 21 day
Albumin [13] = biological target: T1, Albumin; test: Inhibition of D-glucose glycation in human serum albumin model by measuring absorbance at 279 nm incubated for 3 days by UV spectroscopic analysis (reference value: 0.562); details: 72 h, time 3 day
Albumin [14] = biological target: T1, Albumin; test: Inhibition of D-fructose glycation in human serum albumin model by measuring ketoamine moieties incubated for 26 days by Nitroblue tetrazolium (NBT) reduction assay (reference value: 118.21 nmol/mL); details: 624 h, time 26 day
Mus musculus [15] = test: Antidiabetic activity in Nicotinamide/Streptozotocin induced male Balb/c mouse model assessed as LDL-Cholesterol/HDL-Cholesterol ratio in blood at 63.81 ug/kg, ip treated for 21 days (reference value: 1.53); format: functional; details: dose 63.81 µg/kg, time 21 day
Mus musculus [16] = test: Antidiabetic activity in Nicotinamide/Streptozotocin induced male Balb/c mouse model assessed as change in body weight at 63.81 ug/kg, ip measured immediately (reference value: 25.08 +/- 1.25 g); format: functional; details: dose 63.81 µg/kg
Albumin [17] = biological target: T1, Albumin; test: Inhibition of D-fructose glycation in human serum albumin model by measuring absorbance at 279 nm incubated for 33 days by UV spectroscopic analysis (Rvb =2.222); details: 792 h, time 33 day
Mus musculus [18] = test: Antidiabetic activity in Nicotinamide/Streptozotocin induced male Balb/c mouse model assessed as reduction in LDL-Cholesterol level in blood at 63.81 ug/kg, ip treated for 21 days (reference value: 46 +/- 2.30 mg/dL); format: functional; details: dose 63.81 µg/kg, time 21 day
Albumin [19] = biological target: T1, Albumin; test: Inhibition of D-glucose glycation in human serum albumin model by measuring ketoamine moieties incubated for 33 days by Nitroblue tetrazolium (NBT) reduction assay (reference value: 66.64 nmol/mL); details: 792 h, time 33 day
Mus musculus [20] = test: Antidiabetic activity in Nicotinamide/Streptozotocin induced male Balb/c mouse model assessed as reduction in HDL-cholesterol level in blood at 63.81 ug/kg, ip treated for 21 days (reference value: 30 +/- 1.80 mg/dL); format: functional; details: dose 63.81 µg/kg, time 21 day
Albumin [21] = biological target: T1, Albumin; test: Inhibition of D-fructose glycation in human serum albumin model by measuring absorbance at 279 nm incubated for 26 days by UV spectroscopic analysis (reference value: 2.267); details: 624 h, time 26 day
Albumin [22] = biological target: T1, Albumin; test: Inhibition of D-glucose glycation in human serum albumin model incubated for 14 days by UV spectroscopic analysis relative to control; details: 336 h, time 14 day
Albumin [23] = biological target: T1, Albumin; test: Inhibition of D-fructose glycation in human serum albumin model assessed as reduction in fluorescence intensity incubated for 3 days by UV spectroscopic analysis relative to control; details: 72 h, time 3 day
Albumin [24] = biological target: T1, Albumin; test: Inhibition of D-fructose glycation in human serum albumin model by measuring ketoamine moieties incubated for 5 days by Nitroblue tetrazolium (NBT) reduction assay (reference value: 111.94 nmol/mL); details: 120 h, time 5 day
Mus musculus [25] = test: Antidiabetic activity in Nicotinamide/Streptozotocin induced male Balb/c mouse model assessed as reduction in aspartate transaminase level in blood at 63.81 ug/kg, ip treated for 21 days (reference value: 171 +/- 8.55 U/L); format: functional; details: dose 63.81 µg/kg, time 21 day
Mus musculus [26] = test: Antidiabetic activity in Nicotinamide/Streptozotocin induced male Balb/c mouse model assessed as reduction in fasting blood glucose levels at 63.81 ug/kg, ip measured after 14 days by glucometer analysis (reference value: 168.5 +/- 8.42 mg/dl); format: functional; details: dose 63.81 µg/kg, time 14 day
Albumin [27] = biological target: T1, Albumin; test: Inhibition of D-glucose glycation in human serum albumin model by measuring ketoamine moieties incubated for 14 days by Nitroblue tetrazolium (NBT) reduction assay (reference value: 28.69 nmol/mL); details: 336 h, time 14 day
Albumin [28] = biological target: T1, Albumin; test: Inhibition of D-fructose glycation in human serum albumin model by measuring ketoamine moieties incubated for 33 days by Nitroblue tetrazolium (NBT) reduction assay (reference value: 144.33 nmol/mL); details: 792 h, time 33 day
Albumin [29] = biological target: T1, Albumin; test: Inhibition of D-fructose glycation in human serum albumin model by measuring absorbance at 279 nm incubated for 3 days by UV spectroscopic analysis (reference value: 0.492); details: 72 h, time 3 day
Mus musculus [30] = test: Antidiabetic activity in Nicotinamide/Streptozotocin induced male Balb/c mouse model assessed as change in body weight at 63.81 ug/kg, ip treated for 21 days relative to control; format: functional; details: dose 63.81 µg/kg, time 21 day
Albumin [31] = biological target: T1, Albumin; test: Inhibition of D-fructose glycation in human serum albumin model by measuring absorbance at 279 nm incubated for 30 days by UV spectroscopic analysis (reference value: 2.323); details: 720 h, time 30 day

T1 sequence (P02768 whole entry): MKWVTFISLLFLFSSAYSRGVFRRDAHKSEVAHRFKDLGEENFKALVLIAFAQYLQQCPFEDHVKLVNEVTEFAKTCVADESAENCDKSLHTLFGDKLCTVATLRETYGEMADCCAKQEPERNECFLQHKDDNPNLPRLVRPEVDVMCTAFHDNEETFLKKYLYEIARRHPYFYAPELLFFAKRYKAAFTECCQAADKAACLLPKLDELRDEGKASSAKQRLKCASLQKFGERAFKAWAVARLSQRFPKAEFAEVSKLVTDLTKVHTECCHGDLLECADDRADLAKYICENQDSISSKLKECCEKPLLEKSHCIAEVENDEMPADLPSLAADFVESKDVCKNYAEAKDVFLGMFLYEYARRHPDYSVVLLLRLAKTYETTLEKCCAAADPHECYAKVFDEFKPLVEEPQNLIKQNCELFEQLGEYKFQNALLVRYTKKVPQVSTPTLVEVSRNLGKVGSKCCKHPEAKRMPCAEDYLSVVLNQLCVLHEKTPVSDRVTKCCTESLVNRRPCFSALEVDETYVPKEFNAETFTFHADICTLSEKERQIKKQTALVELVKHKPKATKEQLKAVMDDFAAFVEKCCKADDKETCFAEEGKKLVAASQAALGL

N=C(N)NCCC[C@H](N)C(=O)N[C@@H](Cc1c[nH]c2ccccc12)C(=O)N[C@@H](Cc1c[nH]c2ccccc12)C(=O)O (H-Arg-Trp-Trp-OH)
OD (Albumin [1]): 0.665 | IC50 (Alpha glucosidase): 98 µM | OD (Albumin [2]): 0.335 | Activity (Mus musculus [3]): 7.2% | OD (Albumin [4]): 0.434 | Activity (Albumin [5]): 18.908 nmol/mL | Activity (Albumin [6]): 20.174 nmol/mL | Ratio (Mus musculus [7]): 2.63 | Activity (Mus musculus [8]): 67 mg/dL | Activity (Albumin [9]): 19.383 nmol/mL | Activity (Mus musculus [10]): 30.38 g | OD (Albumin [11]): 0.443 | Activity (Mus musculus [12]): 108 mg/dL | OD (Albumin [13]): 0.287 | Activity (Albumin [14]): 142.17 nmol/mL | Ratio (Mus musculus [15]): 0.75 | Activity (Mus musculus [16]): 29.56 g | OD (Albumin [17]): 1.298 | Activity (Mus musculus [18]): 31 mg/dL | Activity (Albumin [19]): 18.433 nmol/mL | Activity (Mus musculus [20]): 41 mg/dL | OD (Albumin [21]): 1.502 | inhibition (INH) (Albumin [22]): 74.68% | inhibition (INH) (Albumin [23]): 52.78% | Activity (Albumin [24]): 90.74 nmol/mL | Activity (Mus musculus [25]): 152 U/L | Activity (Mus musculus [26]): 134 mg/dL | Activity (Albumin [27]): 9.573 nmol/mL | Activity (Albumin [28]): 109.89 nmol/mL | OD (Albumin [29]): 0.287 | Activity (Mus musculus [30]): 2.7% | OD (Albumin [31]): 1.591
